Experimental data reported in patent US20250059162A1, “MULTI-PROTEIN DEGRADATION AGENT HAVING IMIDE SKELETON” (SUZHOU KINTOR PHARMACEUTICALS, INC., priority 2021, published 2025).

How the values were obtained:
Assay type in all cases: cell-based
HL60 cells = experiment: Anti-proliferation on HL60 cells (CellTiter-Glo, 3 days); conditions: Homo sapiens, HL-60, 72 h, 3 days incubation, CTG luminescence, IC50 by XLfit, read-out: HL60 cells Proliferation inhibitory activity
In short: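 Log-phase cells were plated at 20000 cells/well and treated with compound dilutions in RPMI-1640 for 3 days, with 0.1% DMSO controls. Proliferation was read by CellTiter-Glo luminescence. IC50 was fitted from the inhibition rates.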

c-Myc protein = molecular target: T1, c-Myc protein (Homo sapiens, UniProt P01106); experiment: c-Myc protein degradation in HL60 cells (Western blot); conditions: for remaining activity at 0.01 µM: HL-60, compound at 10 nM, 24 h, gray value relative to Ctrl (DMSO), read-out: Remaining amount of c-Myc protein (@10 nM/Ctrl)
T1 construct: degradation of myc and GSPT1 proteins in HL60 cells; endogenous in cells; host or cells: HL60
T1 sequence (P01106 whole entry): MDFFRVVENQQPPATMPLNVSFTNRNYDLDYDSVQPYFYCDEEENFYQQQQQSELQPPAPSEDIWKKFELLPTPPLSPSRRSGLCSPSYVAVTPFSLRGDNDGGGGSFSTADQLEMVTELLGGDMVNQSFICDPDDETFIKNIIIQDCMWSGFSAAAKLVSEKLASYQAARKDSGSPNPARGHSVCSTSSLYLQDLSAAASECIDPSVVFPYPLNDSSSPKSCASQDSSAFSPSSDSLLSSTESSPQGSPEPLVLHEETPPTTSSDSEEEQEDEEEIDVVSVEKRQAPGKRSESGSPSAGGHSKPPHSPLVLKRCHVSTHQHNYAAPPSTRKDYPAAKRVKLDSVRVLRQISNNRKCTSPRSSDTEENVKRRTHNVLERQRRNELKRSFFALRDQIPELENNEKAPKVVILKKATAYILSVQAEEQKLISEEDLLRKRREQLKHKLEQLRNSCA
Method: (§1) HL60 cells in the exponential growth phase were digested and plated into a 6-well plate at 1×10^6 cells per well. The cell culture medium was RPMI-1640 (meilunbio, MA0215). After a day of adherent growth of the cells, the compound of the present invention was added as a test drug for culture, and proteins were extracted 24 h later (Ctrl meant adding only DMSO at the same volume).
(§2) In the 6-well plate, the culture medium RPMI-1640 (meilunbio, MA0215) was removed, and the cells were washed once with PBS, digested with trypsin, and centrifuged and collected separately into 1.5 mL centrifuge tubes. 100 μL of RIPA lysis buffer (containing 100 μM PMSF) was added to each tube, mixed thoroughly, allowed to stand on ice for 30 min and then centrifuged at 12000 rpm at 4° C. using a centrifuge for 20 min. The supernatant was used for Western blotting experiments. The sample can be stored at −80° C.
(§3) By using the BCA protein concentration determination kit (from Thermo Fisher, Cat. No. 23225), the BSA standard determination solution and the samples to be tested (the samples to be tested can be diluted and then tested) were prepared according to the table A below. Samples were added to the 96-well plate. Each well was supplemented with PBS to 20 μL, and then 200 μL of BCA working solution (prepared according to the kit) was added respectively and mixed evenly. The plate was placed at 60° C. for 10 min, and then the absorbance at 562 nm was detected. After the reading was recorded, a standard curve was plotted using concentration gradients of the standards, and the absorbance of the samples was substituted to calculate the protein concentration of the samples.
(§4) • 2.1 Protein denaturation: RIPA protein buffer (purchased from Solarbio, Cat. No. R0010) and 5× Loading Buffer (SDS, glycerin, bromophenol blue, TRIS) (purchased from Solarbio, Cat. No. P1040) were added, and the protein samples were denatured at 100° C. for 5 min. • 2.2 Sample loading and electrophoresis: 10% precast gel and the corresponding electrophoresis buffer were used. The same mass of protein sample and protein ladder (purchased from thermo, Cat. No. 26617) were loaded into each well, and electrophoresis at 200 V was performed for 30 min. • 2.3 […]: The gel was excised to remove the excess part. Transferring to PVDF membrane was performed by the wet transfer method (before use, it was necessary to activate the PVDF membrane with methanol for 1 min) at 300 mA for 2 h, during which a lot of heat was generated, and thus cooling with an ice box was required. • 2.4 Blocking: After the transferring, the PVDF membrane was placed in 5% skim milk and blocked with shaking at room temperature for 1 h. • 2.5 Incubating with primary antibody: The PVDF membrane was cut according to the molecular weight indicated on the marker and placed in c-myc (purchased from abcam, Cat. No. ab32072), or GSPT1 (purchased from abcam, Cat. No. ab234433), or CK1α (purchased from abcam, Cat. No. ab206652), or IKZF2 (purchased from proteintech, Cat. No. 13554-1-AP), and GAPDH (purchased from CST, Cat. No. #97166) primary antibodies. The antibodies were diluted with TBST buffer (a solution prepared from TRIS, KCL and NaCl and adjusted to pH 7.4 with hydrochloric acid, and Tween 20 was added) at a ratio of 1:1000, and blocked overnight on a shaker at 4° C. • 2.6 Incubating with secondary antibody: The PVDF membrane incubated with the primary antibody was washed with TBST for 3 times, each time for 10 min. After washing, the membrane was placed in the secondary antibody of the corresponding species, and incubated at room temperature in a shaker for 2 h. • 2.7 Washing membrane and exposure: After incubated with the secondary antibodies, the membrane was washed 3 times with TBST on a shaker, 10 minutes each time. […]

GSPT1 protein = molecular target: T2, GSPT1 protein (Homo sapiens, UniProt P15170); experiment: GSPT1 protein degradation in HL60 cells (Western blot); conditions: for Degradation of GSPT1 protein in HL60 cells (FIG. 1, in words): FIG. 1, concentration not stated; for remaining GSPT1 protein at 0.01 µM: HL-60, compound at 10 nM, 24 h, gray value relative to Ctrl (DMSO), read-out: Remaining amount of GSPT1 protein (@10 nM/Ctrl)
T2 construct: degradation of myc and GSPT1 proteins in HL60 cells; endogenous in cells; host or cells: HL60
T2 sequence (P15170 whole entry): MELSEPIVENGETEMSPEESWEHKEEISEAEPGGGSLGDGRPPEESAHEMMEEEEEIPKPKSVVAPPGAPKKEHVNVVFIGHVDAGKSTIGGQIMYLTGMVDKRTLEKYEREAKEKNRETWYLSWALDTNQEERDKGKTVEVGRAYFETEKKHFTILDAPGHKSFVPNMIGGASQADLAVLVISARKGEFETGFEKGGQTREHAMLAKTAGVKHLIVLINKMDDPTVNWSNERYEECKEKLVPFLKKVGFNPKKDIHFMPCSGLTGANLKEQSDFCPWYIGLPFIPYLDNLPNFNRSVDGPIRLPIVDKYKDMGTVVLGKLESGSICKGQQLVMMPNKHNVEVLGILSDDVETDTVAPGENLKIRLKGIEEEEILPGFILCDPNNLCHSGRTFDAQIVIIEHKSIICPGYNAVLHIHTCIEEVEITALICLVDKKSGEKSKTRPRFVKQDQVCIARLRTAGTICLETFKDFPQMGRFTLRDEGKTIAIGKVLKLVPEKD
Method: as §1, §2, §3, §4

CK1α protein = molecular target: T3, CK1α protein (Homo sapiens, UniProt P48729); experiment: CK1α protein degradation (Western blot); conditions: compound at 10 nM, 24 h, gray value relative to Ctrl (DMSO)
T3 construct: endogenous in cells; host or cells: HL60
T3 sequence (P48729 whole entry): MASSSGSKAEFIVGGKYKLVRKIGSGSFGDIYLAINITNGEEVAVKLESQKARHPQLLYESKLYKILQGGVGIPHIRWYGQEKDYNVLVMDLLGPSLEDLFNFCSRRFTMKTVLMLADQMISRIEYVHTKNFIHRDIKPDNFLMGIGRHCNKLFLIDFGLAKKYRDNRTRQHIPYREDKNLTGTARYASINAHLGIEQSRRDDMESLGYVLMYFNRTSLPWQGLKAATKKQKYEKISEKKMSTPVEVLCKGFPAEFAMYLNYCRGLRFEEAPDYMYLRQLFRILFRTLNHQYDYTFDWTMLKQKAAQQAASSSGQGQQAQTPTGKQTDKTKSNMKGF
Method: as §1, §2, §3
(§5) • 2.1 Protein denaturation: RIPA protein buffer (purchased from Solarbio, Cat. No. R0010) and 5× Loading Buffer (SDS, glycerin, bromophenol blue, TRIS) (purchased from Solarbio, Cat. No. P1040) were added, and the protein samples were denatured at 100° C. for 5 min. • 2.2 Sample loading and electrophoresis: 10% precast gel and the corresponding electrophoresis buffer were used. […]

IKZF2 protein = molecular target: T4, IKZF2 protein (Homo sapiens, UniProt Q9UKS7); experiment: IKZF2 protein degradation (Western blot); conditions: compound at 10 nM, 24 h, gray value relative to Ctrl (DMSO)
T4 construct: endogenous in cells; host or cells: HL60
T4 sequence (Q9UKS7 whole entry): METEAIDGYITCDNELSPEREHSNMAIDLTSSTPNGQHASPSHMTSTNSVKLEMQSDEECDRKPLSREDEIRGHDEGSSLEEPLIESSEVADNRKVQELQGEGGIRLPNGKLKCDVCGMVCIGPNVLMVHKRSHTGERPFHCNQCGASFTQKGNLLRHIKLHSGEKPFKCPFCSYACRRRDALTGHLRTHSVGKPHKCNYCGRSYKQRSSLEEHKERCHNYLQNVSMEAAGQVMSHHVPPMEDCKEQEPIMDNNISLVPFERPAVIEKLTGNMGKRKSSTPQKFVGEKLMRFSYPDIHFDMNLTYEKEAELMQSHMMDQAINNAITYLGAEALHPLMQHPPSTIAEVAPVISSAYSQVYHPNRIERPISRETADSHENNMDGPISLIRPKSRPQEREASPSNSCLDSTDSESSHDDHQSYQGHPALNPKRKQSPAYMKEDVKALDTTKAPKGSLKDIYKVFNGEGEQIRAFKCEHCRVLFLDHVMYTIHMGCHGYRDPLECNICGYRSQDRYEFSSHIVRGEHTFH
Method: as §1, §2, §3, §5

IC50 (HL60 cells) | remaining activity at 0.01 µM (c-Myc protein) | Degradation of GSPT1 protein in HL60 cells (FIG. 1, in words) (GSPT1 protein) | remaining GSPT1 protein at 0.01 µM (GSPT1 protein) | Remaining amount of CK1α protein (@10 nM/Ctrl) (CK1α protein) | Remaining amount of IKZF2 protein (@10 nM/Ctrl) (IKZF2 protein) | Degradation of c-Myc protein in HL60 cells at 10 nM (FIG. 1, in words) (c-Myc protein) | Degradation of GSPT1 protein in HL60 cells at 10 nM (FIG. 1, in words) (GSPT1 protein; 10 nM) | SMILES
2 nM | 17% | significantly degrade GSPT1 protein | 16% | 27% | 45% | – | – | O=C1CCC(N2Cc3cc(CNCC4CCN(c5ncc(-c6cccc7ccccc67)cn5)CC4)ccc3C2=O)C(=O)N1 (centres unmarked) [Compound A62]
– | – | – | – | 78% | 85% | no ability to degrade c-Myc protein | – | O=C1CCC(N2Cc3cc(CNC(=O)C(F)(F)c4ccc(Cl)cc4)ccc3C2=O)C(=O)N1 (centres unmarked) [CC-90009, reference compound]
< 0.2 nM | 0% | significantly degrade GSPT1 protein | 3% | 5% | 17% | completely degrade both GSPT1 and c-Myc | completely degrade both GSPT1 and c-Myc | O=C1CCC(N2Cc3cc(CNCC4CCN(c5ncc(-c6cccc(Cl)c6)cc5C(F)(F)F)CC4)ccc3C2=O)C(=O)N1 (centres unmarked) [Compound A80]
